Laboratory results as given in US12139520B2 (priority 2020, dated 2024).
Bridge positions count the residues as written; N and C are the ends. Square brackets hold non-standard residues; d marks the D form. Peptide text beside a SMILES is read from it. Hyp = O=C(O)[C@@H]1C[C@@H](O)CN1; Cit = NC(=O)NCCC[C@H](N)C(=O)O

Columns and labels:
[1] = Physical stability of peptide analogues (Thioflavin T fibrillation); format: physicochemical; details: maximum ThT signal normalized between hAMY maximum and buffer background; 40° C., shaking, four days; pH 7 per table title
In short: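 1 h in 50 mM NaOAc pH 4 / 50 mM NaPi pH 7; + ThT 4 μM final; 40 °C, 700 rpm linear shake 5 min pre-read; ex 450, em 480 nm q10 min × 4 d; LOESS smoothing; max signal normalised to hAMY max vs buffer blank.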

hAMY3 receptor = biological target: T1, hAMY3 receptor (Homo sapiens, UniProt O60896+P30988); assay: cAMP assay for in vitro receptor activation, hAMY3-R; format: cell-based; details: cAMP assay, hAMY3 receptor; read-out: hAMY3R EC50
T1 sequence (P30988 25-474): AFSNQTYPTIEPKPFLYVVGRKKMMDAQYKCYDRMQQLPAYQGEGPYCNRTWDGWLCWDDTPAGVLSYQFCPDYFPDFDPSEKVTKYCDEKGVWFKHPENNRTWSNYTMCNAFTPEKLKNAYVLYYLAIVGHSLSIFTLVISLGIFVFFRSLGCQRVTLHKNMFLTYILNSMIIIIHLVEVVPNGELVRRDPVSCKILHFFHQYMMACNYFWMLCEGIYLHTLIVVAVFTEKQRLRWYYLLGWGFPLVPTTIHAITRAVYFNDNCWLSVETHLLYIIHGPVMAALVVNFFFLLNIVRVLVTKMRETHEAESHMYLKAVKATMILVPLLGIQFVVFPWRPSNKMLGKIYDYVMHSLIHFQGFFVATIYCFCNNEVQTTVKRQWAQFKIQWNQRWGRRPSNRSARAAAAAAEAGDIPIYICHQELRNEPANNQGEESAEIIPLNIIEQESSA
T1 sequence (O60896 24-148 partner): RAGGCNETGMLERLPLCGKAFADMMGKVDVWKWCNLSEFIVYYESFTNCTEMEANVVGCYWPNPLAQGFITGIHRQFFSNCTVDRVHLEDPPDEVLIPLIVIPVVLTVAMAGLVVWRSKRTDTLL
In short: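 Read-out is TR-FRET cAMP signal, recorded one hour after reagent addition, following 30 min room-temperature stimulation of stable hAMY3 cells with graded compound doses in casein/IBMX (0.5 mM) buffer.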

hAM1 receptor = hAM1 receptor (Homo sapiens, UniProt O60895+Q16602); assay: cAMP assay for in vitro receptor activation, hAM1-R; format: cell-based; details: cAMP assay, hAM1 receptor; read-out: hAM1R EC50
hAM1 receptor, sequence (Q16602 23-461): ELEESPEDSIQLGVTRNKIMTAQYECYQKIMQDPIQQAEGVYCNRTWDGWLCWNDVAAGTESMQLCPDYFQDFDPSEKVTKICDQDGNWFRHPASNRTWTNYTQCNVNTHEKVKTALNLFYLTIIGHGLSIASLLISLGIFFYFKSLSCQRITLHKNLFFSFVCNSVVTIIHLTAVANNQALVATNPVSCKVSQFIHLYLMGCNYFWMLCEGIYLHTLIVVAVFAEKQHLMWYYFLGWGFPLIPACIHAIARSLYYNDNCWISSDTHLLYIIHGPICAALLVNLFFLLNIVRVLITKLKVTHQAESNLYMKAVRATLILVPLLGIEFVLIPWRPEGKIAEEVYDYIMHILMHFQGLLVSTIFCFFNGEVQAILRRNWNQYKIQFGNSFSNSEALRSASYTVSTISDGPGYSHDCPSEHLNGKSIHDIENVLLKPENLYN
hAM1 receptor, sequence (O60895 43-175 partner): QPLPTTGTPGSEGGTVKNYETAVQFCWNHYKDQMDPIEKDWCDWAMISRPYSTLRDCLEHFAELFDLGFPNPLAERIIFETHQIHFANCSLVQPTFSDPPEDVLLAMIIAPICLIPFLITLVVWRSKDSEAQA
In short: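 A subcloned monoclonal line stably expressing hAM1 receptor is thawed and plated at 8000 cells/well. The assay buffer is DPBS with 0.05% casein and 0.5 mM IBMX, and receptor activation is followed by cAMP levels.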

Row | SMILES | Max ThT signal (%) [1] [%] | EC50 (hAMY3 receptor) [nM] | EC50 (hAM1 receptor) [nM]
1 | CC[C@H](C)[C@H](NC(=O)[C@H](CCC(N)=O)NC(=O)[C@H](Cc1c[nH]cn1)NC(=O)[C@H](C)NC(=O)[C@H](CC(C)C)NC(=O)[C@H](CCCNC(=N)N)NC(=O)[C@H](CCC(N)=O)NC(=O)[C@@H](NC(=O)[C@@H](NC(=O)[C@@H]1CSSC[C@H](NC(=O)[C@@H](N)CCCCN)C(=O)N[C@@H](CC(N)=O)C(=O)N[C@@H]([C@@H](C)O)C(=O)N[C@@H](C)C(=O)N[C@@H]([C@@H](C)O)C(=O)N1)[C@@H](C)O)C(C)C)C(=O)N[C@@H](Cc1ccc(O)cc1)C(=O)N[C@@H](CCC(N)=O)C(=O)N[C@@H](Cc1ccccc1)C(=O)N[C@H](C(=O)N[C@@H](C)C(=O)N[C@@H](CCCCN)C(=O)N[C@@H](CC(=O)O)C(=O)N[C@@H](CCCCN)C(=O)N[C@@H](CC(=O)O)C(=O)N[C@@H](CC(N)=O)C(=O)N[C@H](C(=O)N[C@@H](C)C(=O)N1CCC[C@H]1C(=O)N1CCC[C@H]1C(=O)N[C@H](C(=O)N[C@@H](CC(N)=O)C(=O)N[C@H](C(=O)NCC(=O)N[C@@H](CO)C(=O)N[C@@H](CC(N)=O)C(=O)NCC(=O)N1C[C@H](O)C[C@H]1C(N)=O)C(C)C)[C@@H](C)O)C(C)C)[C@@H](C)O [compound 24] (H-KCNTATCTVQRLAHQIYQFTAKDKDNVAPPTNVGSNG[Hyp]-NH2; disulfide 2-7; N-terminus assumed) | 6.800 | 0.008 | > 5000
2 | CC[C@H](C)[C@H](NC(=O)[C@H](CCC(N)=O)NC(=O)[C@H](Cc1c[nH]cn1)NC(=O)[C@H](C)NC(=O)[C@H](CC(C)C)NC(=O)[C@H](CCCNC(=N)N)NC(=O)[C@H](CCC(N)=O)NC(=O)[C@@H](NC(=O)[C@@H](NC(=O)[C@@H]1CSSC[C@H](NC(=O)[C@@H](N)CCCCN)C(=O)N[C@@H](CC(N)=O)C(=O)N[C@@H]([C@@H](C)O)C(=O)N[C@@H](C)C(=O)N[C@@H]([C@@H](C)O)C(=O)N1)[C@@H](C)O)C(C)C)C(=O)N[C@@H](Cc1ccc(O)cc1)C(=O)N[C@@H](CCC(N)=O)C(=O)N[C@@H](Cc1ccccc1)C(=O)N[C@H](C(=O)N[C@@H](CC(=O)O)C(=O)N[C@@H](CCCCN)C(=O)N[C@@H](C)C(=O)N[C@@H](CCCCN)C(=O)N[C@@H](CC(=O)O)C(=O)N[C@@H](CC(N)=O)C(=O)N[C@H](C(=O)N[C@@H](C)C(=O)N1CCC[C@H]1C(=O)N1CCC[C@H]1C(=O)N[C@H](C(=O)N[C@@H](CC(N)=O)C(=O)N[C@H](C(=O)NCC(=O)N[C@@H](CO)C(=O)N[C@@H](CC(N)=O)C(=O)NCC(=O)N1C[C@H](O)C[C@H]1C(N)=O)C(C)C)[C@@H](C)O)C(C)C)[C@@H](C)O [compound 43] (H-KCNTATCTVQRLAHQIYQFTDKAKDNVAPPTNVGSNG[Hyp]-NH2; disulfide 2-7; N-terminus assumed) | 1.200 | 0.01 | > 5000
3 | CC[C@H](C)[C@H](NC(=O)[C@H](CCC(N)=O)NC(=O)[C@H](Cc1c[nH]cn1)NC(=O)[C@H](C)NC(=O)[C@H](CC(C)C)NC(=O)[C@H](CCCNC(N)=O)NC(=O)[C@H](CCC(N)=O)NC(=O)[C@@H](NC(=O)[C@@H](NC(=O)[C@@H]1CSSC[C@H](NC(=O)CN)C(=O)N[C@@H](CCCNC(=N)N)C(=O)N[C@@H](Cc2ccccc2)C(=O)NCC(=O)N[C@@H]([C@@H](C)O)C(=O)N1)[C@@H](C)O)C(C)C)C(=O)N[C@@H](Cc1ccc(O)cc1)C(=O)N[C@@H](CCC(N)=O)C(=O)N[C@@H](Cc1ccccc1)C(=O)N[C@H](C(=O)N[C@@H](CC(=O)O)C(=O)N[C@@H](CCCCN)C(=O)N[C@@H](CC(=O)O)C(=O)N[C@@H](CCCCN)C(=O)N[C@@H](CC(=O)O)C(=O)N[C@@H](CC(N)=O)C(=O)N[C@H](C(=O)N[C@@H](C)C(=O)N1CCC[C@H]1C(=O)N[C@@H](CCCNC(=N)N)C(=O)N[C@H](C(=O)N[C@@H](CCCCN)C(=O)N[C@H](C(=O)N[C@@H](CO)C(=O)N1CCC[C@H]1C(=O)N[C@@H](CC(N)=O)C(=O)NCC(=O)N1C[C@H](O)C[C@H]1C(N)=O)[C@@H](C)CC)[C@@H](C)O)C(C)C)[C@@H](C)O [compound 275] (H-GCRFGTCTVQ[Cit]LAHQIYQFTDKDKDNVAPRTKISPNG[Hyp]-NH2; disulfide 2-7; N-terminus assumed) | 19.850 | 0.02 | > 5000
4 | CC[C@H](C)[C@H](NC(=O)[C@H](CCC(N)=O)NC(=O)[C@H](Cc1c[nH]cn1)NC(=O)[C@H](C)NC(=O)[C@H](CC(C)C)NC(=O)[C@H](CCCNC(=N)N)NC(=O)[C@H](CCC(N)=O)NC(=O)[C@@H](NC(=O)[C@@H](NC(=O)[C@@H]1CSSC[C@H](NC(=O)CN)C(=O)N[C@@H](CCCNC(=N)N)C(=O)N[C@@H]([C@@H](C)O)C(=O)NCC(=O)N[C@@H]([C@@H](C)O)C(=O)N1)[C@@H](C)O)C(C)C)C(=O)N[C@@H](Cc1ccc(O)cc1)C(=O)N[C@@H](CCC(N)=O)C(=O)N[C@@H](Cc1ccccc1)C(=O)N[C@H](C(=O)N[C@@H](CC(=O)O)C(=O)N[C@@H](CCCCN)C(=O)N[C@@H](Cc1ccccc1)C(=O)N[C@@H](CCCCN)C(=O)N[C@@H](CC(=O)O)C(=O)N[C@@H](CC(N)=O)C(=O)N[C@H](C(=O)N[C@@H](C)C(=O)N1CCC[C@H]1C(=O)N[C@@H](CCCNC(=N)N)C(=O)N[C@@H](CO)C(=O)N[C@@H](CCCCN)C(=O)N[C@H](C(=O)N[C@@H](CO)C(=O)N1CCC[C@H]1C(=O)N[C@@H](CCC(N)=O)C(=O)N[C@@H](CCCCN)C(=O)N1C[C@H](O)C[C@H]1C(N)=O)[C@@H](C)CC)C(C)C)[C@@H](C)O [compound 206] (H-GCRTGTCTVQRLAHQIYQFTDKFKDNVAPRSKISPQK[Hyp]-NH2; disulfide 2-7; N-terminus assumed) | 1.500 | 0.13 | > 5000
5 | CC[C@H](C)[C@H](NC(=O)[C@H](CCC(N)=O)NC(=O)[C@H](Cc1c[nH]cn1)NC(=O)[C@H](C)NC(=O)[C@H](CC(C)C)NC(=O)[C@H](CCCNC(N)=O)NC(=O)[C@H](CCC(N)=O)NC(=O)[C@@H](NC(=O)[C@@H](NC(=O)[C@@H]1CSSC[C@H](NC(=O)[C@@H](N)CCCCN)C(=O)N[C@@H](CC(N)=O)C(=O)N[C@@H]([C@@H](C)O)C(=O)N[C@@H](C)C(=O)N[C@@H]([C@@H](C)O)C(=O)N1)[C@@H](C)O)C(C)C)C(=O)N[C@@H](Cc1ccc(O)cc1)C(=O)N[C@@H](CCC(N)=O)C(=O)N[C@@H](Cc1ccccc1)C(=O)N[C@@H](CC(=O)O)C(=O)N[C@@H](CCCCN)C(=O)N[C@@H](CC(=O)O)C(=O)N[C@@H](CCCCN)C(=O)N[C@@H](CC(=O)O)C(=O)N[C@@H](CC(N)=O)C(=O)N[C@H](C(=O)N[C@@H](C)C(=O)N1CCC[C@H]1C(=O)N1CCC[C@H]1C(=O)N[C@H](C(=O)N[C@@H](CC(N)=O)C(=O)N[C@H](C(=O)NCC(=O)N[C@@H](CO)C(=O)N[C@@H](CC(N)=O)C(=O)NCC(=O)N1C[C@H](O)C[C@H]1C(N)=O)C(C)C)[C@@H](C)O)C(C)C [compound 265] (H-KCNTATCTVQ[Cit]LAHQIYQFDKDKDNVAPPTNVGSNG[Hyp]-NH2; disulfide 2-7; N-terminus assumed) | 26.550 | 0.03 | > 5000
6 | CC[C@H](C)[C@H](NC(=O)[C@H](CCC(N)=O)NC(=O)[C@H](CC(=O)O)NC(=O)[C@H](C)NC(=O)[C@H](CC(C)C)NC(=O)[C@H](Cc1c[nH]c2ccccc12)NC(=O)[C@H](C)NC(=O)[C@@H](NC(=O)[C@@H](NC(=O)[C@@H]1CSSC[C@H](NC(=O)[C@@H](N)CCCCN)C(=O)N[C@@H](CC(N)=O)C(=O)N[C@@H]([C@@H](C)O)C(=O)N[C@@H](CO)C(=O)N[C@@H]([C@@H](C)O)C(=O)N1)[C@@H](C)O)C(C)C)C(=O)N[C@H](C(=O)N[C@@H](CCC(N)=O)C(=O)N[C@@H](Cc1ccccc1)C(=O)N[C@@H](CO)C(=O)N[C@@H](CC(=O)O)C(=O)N[C@@H](CCCCN)C(=O)N[C@@H](CC(=O)O)C(=O)N[C@@H](CCCCN)C(=O)N[C@@H](C)C(=O)N[C@@H](CC(N)=O)C(=O)N[C@H](C(=O)N[C@@H](CO)C(=O)N1CCC[C@H]1C(=O)N1CCC[C@H]1C(=O)N[C@H](C(=O)N[C@@H](CCC(=O)O)C(=O)N[C@H](C(=O)NCC(=O)N1CCC[C@H]1C(=O)N[C@@H](CC(N)=O)C(=O)N[C@@H](CO)C(=O)N1C[C@H](O)C[C@H]1C(N)=O)C(C)C)[C@@H](C)O)C(C)C)[C@@H](C)O [compound 310] (H-KCNTSTCTVAWLADQITQFSDKDKANVSPPTEVGPNS[Hyp]-NH2; disulfide 2-7) | 3.500 | 0.003 | > 5000
